# Laboratory results: patent US20090054435A1, “Phenoxyalkanoic Acid Compound” (priority 2005, published 2009)
row,Compound,melting point [°C]
1,"COc1ccc(C(=O)c2cccc(OCc3nc(-c4ccccc4)oc3C)c2)c(OCCOC(C)=O)c1 [Example 2, (5-methoxy-2-{3-[(5-methyl-2-phenyl-1,3-oxazol-4-yl)methoxy]benzoyl}phenoxy)ethyl acetate]",90 to 91
2,"COc1ccc(C(=O)c2cccc(OCc3nc(-c4ccccc4)oc3C)c2)c(OCC(=O)O)c1 [Example 4, (5-methoxy-2-{3-[(5-methyl-2-phenyl-1,3-oxazol-4-yl)methoxy]benzoyl}phenoxy)acetic acid]",198 to 199
3,"COc1ccc(C(C)(O)c2cccc(OCc3nc(-c4ccccc4)oc3C)c2)c(OCCOC(C)=O)c1 (centres unmarked) [Example 5, [2-(1-hydroxy-1-{3-[(5-methyl-2-phenyl-1,3-oxazol-4-yl)methoxy]phenyl}ethyl)-5-methoxyphenoxy]ethyl acetate]",144 to 145
4,"COc1ccc(C(C)(O)c2cccc(OCc3nc(-c4ccccc4)oc3C)c2)c(OCC(=O)O)c1 (centres unmarked) [Example 6, [2-(1-hydroxy-1-{3-[(5-methyl-2-phenyl-1,3-oxazol-4-yl)methoxy]phenyl}ethyl)-5-methoxyphenoxy]acetic acid]",148 to 149
5,"CCOC(c1cccc(OCc2nc(-c3ccccc3)oc2C)c1)c1ccc(OC)cc1OCC(=O)O (centres unmarked) [Example 7, [2-(ethoxy{3-[(5-methyl-2-phenyl-1,3-oxazol-4-yl)methoxy]phenyl}methyl)-5-methoxyphenoxy]acetic acid]",129 to 130
6,"Cc1oc(-c2ccccc2)nc1COc1ccc(C(=O)c2ccccc2OCC(=O)O)cc1 [Example 8, (2-{4-[(5-methyl-2-phenyl-1,3-oxazol-4-yl)methoxy]benzoyl}phenoxy)acetic acid]",174 to 175
7,"Cc1oc(-c2ccccc2)nc1COc1ccc(C(=O)c2ccc(O)cc2OCC(=O)O)cc1 [Example 11, (5-hydroxy-2-{4-[(5-methyl-2-phenyl-1,3-oxazol-4-yl)methoxy]benzoyl}phenoxy)acetic acid]",229 to 230

# The next lines start with the values.
row,melting point [°C],Compound
1,184 to 186,"CCOC(=O)COc1cc(O)ccc1C(=O)c1ccc(OCc2nc(-c3ccccc3)oc2C)cc1 [Example 12, ethyl (5-hydroxy-2-{4-[(5-methyl-2-phenyl-1,3-oxazol-4-yl)methoxy]benzoyl}phenoxy)acetate]"
2,100 to 102,"COc1ccc(C(=O)c2ccc(OCc3nc(-c4ccccc4)oc3C)cc2)c(OC(C)C(=O)O)c1 (centres unmarked) [Example 13, 2-(5-methoxy-2-{4-[(5-methyl-2-phenyl-1,3-oxazol-4-yl)methoxy]benzoyl}phenoxy)propanoic acid]"
3,142 to 143,"COc1ccc(C(=O)c2ccc(OCc3nc(-c4ccccc4)oc3C)cc2)c(OCCC(=O)O)c1 [Example 15, 3-(5-methoxy-2-{4-[(5-methyl-2-phenyl-1,3-oxazol-4-yl)methoxy]benzoyl}phenoxy)propanoic acid]"
4,161 to 162,"CCC(Oc1cc(OC)ccc1C(=O)c1ccc(OCc2nc(-c3ccccc3)oc2C)cc1)C(=O)O (centres unmarked) [Example 17, 2-(5-methoxy-2-{4-[(5-methyl-2-phenyl-1,3-oxazol-4-yl)methoxy]benzoyl}phenoxy)butanoic acid]"
5,87 to 88,"COc1ccc(C(=O)c2ccc(OCc3nc(-c4ccccc4)oc3C)cc2)c(OC(C(=O)O)C(C)C)c1 (centres unmarked) [Example 18, 2-(5-methoxy-2-{4-[(5-methyl-2-phenyl-1,3-oxazol-4-yl)methoxy]benzoyl}phenoxy)-3-methylbutanoic acid]"
6,166 to 167,"COc1ccc(C(=O)c2ccc(OCc3nc(-c4ccccc4)oc3C)cc2)c(OC(F)(F)C(=O)O)c1 [Example 19, difluoro (5-methoxy-2-{4-[(5-methyl-2-phenyl-1,3-oxazol-4-yl)methoxy]benzoyl}phenoxy)acetic acid]"
7,139 to 140,"CCCC(Oc1cc(OC)ccc1C(=O)c1ccc(OCc2nc(-c3ccccc3)oc2C)cc1)C(=O)O (centres unmarked) [Example 20, 2-(5-methoxy-2-{4-[(5-methyl-2-phenyl-1,3-oxazol-4-yl)methoxy]benzoyl}phenoxy)pentanoic acid]"
